Results on 7 compounds are retold here after ChEMBL document CHEMBL1154354, “Synthetic peptides containing a conserved sequence motif of the Id protein family modulate vascular smooth muscle cell phenotype” (Bioorg Med Chem Lett, 2009).

In one series the test system is HSMC. Description: (§1) Antiproliferative activity against HSMC expressing Id-protein assessed as reduction in cell growth after 72 hrs by Coulter counting. The class given is functional. To be noted: Homo sapiens.
Series [1] in a line: as §1. The format is functional, Homo sapiens. Also noted: scale not given: the % may be the effect or the level left.
Series [2] in a line: Inhibition of PDGF-stimulated HSMC migration after 8 hrs by Boyden chamber assay. The class given is functional, Homo sapiens. Also noted: scale not given: the % may be the effect or the level left.
A short description of series [3]: Drug uptake by HSMC assessed as mean fluorescence index after 72 hrs by FACS. The format is ADME. To be noted: human. In general terms: In flow cytometry, cells or beads pass a laser one at a time.
The nature of series [4]: Perinuclear localization in HSMC after 6 hrs by fluorescence microscopy. The format is ADME, cell-based. To be noted: human.
For series [5], the target named is T1, DNA-binding protein inhibitor ID-1 (Homo sapiens) (UniProt P41134).
T1 sequence (whole entry): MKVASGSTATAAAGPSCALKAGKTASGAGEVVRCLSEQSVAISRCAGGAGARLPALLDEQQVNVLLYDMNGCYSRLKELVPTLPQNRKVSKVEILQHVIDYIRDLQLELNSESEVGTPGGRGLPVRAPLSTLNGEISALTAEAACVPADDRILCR
Description: Binding affinity to ID-HLH domain by CD spectroscoy.

The target in series [6] is T1, DNA-binding protein inhibitor ID-1 (Homo sapiens). The series can be described thus: Decrease in ID1-protein level in HSMC by Western blotting. (In general: A western blot detects proteins with antibodies after separation by electrophoresis.)
Series [7] has the same target. The series can be described thus: Inhibition of ID1-protein in HSMC assessed as increase in alpha-actin mRNA level by real time PCR. For orientation: Quantitative PCR measures a nucleic acid by following its amplification.
Series [8] has the same target. Description: Inhibition of ID1-protein in HSMC assessed as increase in alpha-actin protein level by Western blotting.

Calls of active or inactive are those of the source. The calls are words filed in the database; no cut-off is given here.

Turning to “Ac-LYDMNGCYSRLKELVPTLPQNRKVSKVEILQHVIDYIRDLQ-NH2”, in the series with HSMC, the Activity entry is “Toxic”.
Turning to `CC[C@H](C)[C@H](NC(=O)[C@H](CCC(=O)O)NC(=O)[C@@H](NC(=O)[C@H](CCCCN)NC(=O)C1CCC(C(NC(=O)c2ccccc2)C(=O)N[C@@H](CCCCN)C(=O)N[C@H](C(=O)N[C@@H](CCC(=O)O)C(=O)N[C@H](C(=O)N[C@@H](CC(C)C)C(=O)N[C@@H](CCC(N)=O)C(=O)N[C@@H](Cc2cnc[nH]2)C(=O)N[C@H](C(=O)N[C@H](C(=O)N[C@@H](CC(=O)O)C(=O)N[C@@H](Cc2ccc(O)cc2)C(N)=O)[C@@H](C)CC)C(C)C)[C@@H](C)CC)C(C)C)C1)C(C)C)C(=O)N[C@@H](CC(C)C)C(=O)N[C@@H](CCC(N)=O)C(=O)N[C@@H](Cc1cnc[nH]1)C(=O)N[C@H](C(=O)N[C@H](C(=O)N[C@@H](CC(=O)O)C(=O)N[C@@H](Cc1ccc(O)cc1)C(N)=O)[C@@H](C)CC)C(C)C` (stereo partly drawn), the figures for the Activity in series [1] and in [2] were 40% and 20%, respectively.
Consider `CC[C@H](C)[C@H](NC(=O)[C@H](CCC(=O)O)NC(=O)[C@@H](NC(=O)[C@H](CCCCN)NC(=O)[C@H]1CC[C@@H]([C@H](NC(=O)c2cccc3c2C(=O)OC32c3ccc(O)cc3Oc3cc(O)ccc32)C(=O)O[C@@H](CCCCN)C(=O)N[C@H](C(=O)N[C@@H](CCC(=O)O)C(=O)N[C@H](C(=O)N[C@@H](CC(C)C)C(=O)N[C@@H](CCC(N)=O)C(=O)N[C@@H](Cc2cnc[nH]2)C(=O)N[C@H](C(=O)N[C@H](C(=O)N[C@@H](CC(=O)O)C(=O)N[C@@H](Cc2ccc(O)cc2)C(=O)N[C@@H](CCCCN)C(=O)N[C@@H](CCCCN)C(=O)N[C@@H](CCCCN)C(N)=O)[C@@H](C)CC)C(C)C)[C@@H](C)CC)C(C)C)C1)C(C)C)C(=O)N[C@@H](CC(C)C)C(=O)N[C@@H](CCC(N)=O)C(=O)N[C@@H](Cc1cnc[nH]1)C(=O)N[C@H](C(=O)N[C@H](C(=O)N[C@@H](CC(=O)O)C(=O)N[C@@H](Cc1ccc(O)cc1)C(=O)N[C@@H](CCCCN)C(=O)N[C@@H](CCCCN)C(=O)N[C@@H](CCCCN)C(N)=O)[C@@H](C)CC)C(C)C`, for which the Activity entry in series [3] is on record as “Dose-dependent effect”; in series [4], “Active”.
In the case of `CC[C@H](C)[C@H](NC(=O)[C@H](CCC(=O)O)NC(=O)[C@@H](NC(=O)[C@H](CCCCN)NC(=O)[C@@H]1CC[C@H]([C@@H](NC(=O)c2ccccc2)C(=O)N[C@@H](CCCCN)C(=O)N[C@H](C(=O)N[C@@H](CCC(=O)O)C(=O)N[C@H](C(=O)N[C@@H](CC(C)C)C(=O)N[C@@H](CCC(N)=O)C(=O)N[C@@H](Cc2cnc[nH]2)C(=O)N[C@H](C(=O)N[C@H](C(=O)N[C@@H](CC(=O)O)C(=O)N[C@@H](Cc2ccc(O)cc2)C(N)=O)[C@@H](C)CC)C(C)C)[C@@H](C)CC)C(C)C)C1)C(C)C)C(=O)N[C@@H](CC(C)C)C(=O)N[C@@H](CCC(N)=O)C(=O)N[C@@H](Cc1cnc[nH]1)C(=O)N[C@H](C(=O)N[C@H](C(=O)N[C@@H](CC(=O)O)C(=O)N[C@@H](Cc1ccc(O)cc1)C(N)=O)[C@@H](C)CC)C(C)C`, the Activity in series [1] is listed as 40%.
For `CC[C@H](C)[C@H](NC(=O)[C@H](CCC(=O)O)NC(=O)[C@@H](NC(=O)[C@H](CCCCN)NC(=O)[C@H]1CC[C@@H]([C@H](NC(=O)c2ccccc2)C(=O)N[C@@H](CCCCN)C(=O)N[C@H](C(=O)N[C@@H](CCC(=O)O)C(=O)N[C@H](C(=O)N[C@@H](CC(C)C)C(=O)N[C@@H](CCC(N)=O)C(=O)N[C@@H](Cc2cnc[nH]2)C(=O)N[C@H](C(=O)N[C@H](C(=O)N[C@@H](CC(=O)O)C(=O)N[C@@H](Cc2ccc(O)cc2)C(N)=O)[C@@H](C)CC)C(C)C)[C@@H](C)CC)C(C)C)C1)C(C)C)C(=O)N[C@@H](CC(C)C)C(=O)N[C@@H](CCC(N)=O)C(=O)N[C@@H](Cc1cnc[nH]1)C(=O)N[C@H](C(=O)N[C@H](C(=O)N[C@@H](CC(=O)O)C(=O)N[C@@H](Cc1ccc(O)cc1)C(N)=O)[C@@H](C)CC)C(C)C`, the K0.5 in series [5] came to 6.6 µM. Besides, the result in [6] was Active. Also, the Activity was 40% in [1], “Dose-dependent effect” in series [7] and “Dose-dependent effect” in series [8].
As to H-KVEILQHVIDYIRDLQ-OH, the result with HSMC was inactive.
In the case of `CC[C@H](C)[C@H](NC(=O)[C@H](Cc1ccc(O)cc1)NC(=O)[C@H](CC(=O)O)NC(=O)[C@@H](NC(=O)[C@@H](NC(=O)[C@H](Cc1cnc[nH]1)NC(=O)[C@H](CCC(N)=O)NC(=O)[C@H](CC(C)C)NC(=O)[C@@H](NC(=O)[C@H](CCC(=O)O)NC(=O)[C@@H](NC(=O)[C@H](CCCCN)NC(=O)C1CCC(C(NC(=O)c2ccccc2)C(=O)N[C@@H](CCCCN)C(=O)N[C@H](C(=O)N[C@@H](CCC(=O)O)C(=O)N[C@H](C(=O)N[C@@H](CC(C)C)C(=O)N[C@@H](CCC(N)=O)C(=O)N[C@@H](Cc2cnc[nH]2)C(=O)N[C@H](C(=O)N[C@H](C(=O)N[C@@H](CC(=O)O)C(=O)N[C@@H](Cc2ccc(O)cc2)C(=O)N[C@H](C(=O)N[C@@H](CCCNC(=N)N)C(=O)N[C@@H](CC(C)C)C(=O)N[C@@H](CC(=O)O)C(=O)N[C@@H](CCC(N)=O)C(N)=O)[C@@H](C)CC)[C@@H](C)CC)C(C)C)[C@@H](C)CC)C(C)C)C1)C(C)C)[C@@H](C)CC)C(C)C)[C@@H](C)CC)C(=O)N[C@@H](CCCNC(=N)N)C(=O)N[C@@H](CC(C)C)C(=O)N[C@@H](CC(=O)O)C(=O)N[C@@H](CCC(N)=O)C(N)=O` (stereo partly drawn), the Activity in series [1] turned out to be 30%.
